In the NIST ThermoML archive (doi:10.1021/je400336p):

Assay: xn = mol fraction of the nth substance listed
Conditions: Fluid (supercritical or subcritical phases), Taylor dispersion method, x1 = 0

| binary diffusion coefficient (313 K, 15000 kPa) | binary diffusion coefficient (313 K, 20000 kPa) | binary diffusion coefficient (313 K, 25000 kPa) | binary diffusion coefficient (313 K, 30000 kPa) | binary diffusion coefficient (313 K, 35000 kPa) | binary diffusion coefficient (323 K, 15000 kPa) | binary diffusion coefficient (323 K, 20000 kPa) | binary diffusion coefficient (323 K, 25000 kPa) | binary diffusion coefficient (323 K, 30000 kPa) | binary diffusion coefficient (323 K, 35000 kPa) | binary diffusion coefficient (333 K, 15000 kPa) | binary diffusion coefficient (333 K, 20000 kPa) | binary diffusion coefficient (333 K, 25000 kPa) | binary diffusion coefficient (333 K, 30000 kPa) | binary diffusion coefficient (333 K, 35000 kPa) | SMILES |
| --- | --- | --- | --- | --- | --- | --- | --- | --- | --- | --- | --- | --- | --- | --- | --- |
| 1.02e-08 m2/s | 9.12e-09 m2/s | 8.35e-09 m2/s | 7.6e-09 m2/s | 7.28e-09 m2/s | 1.24e-08 m2/s | 1.03e-08 m2/s | 9.43e-09 m2/s | 8.64e-09 m2/s | 8.07e-09 m2/s | 1.4e-08 m2/s | 1.24e-08 m2/s | 1.07e-08 m2/s | 9.88e-09 m2/s | 9.37e-09 m2/s | CC(C)Cc1ccccc1 [(2-methylpropyl)benzene] + O=C=O |
| 1.01e-08 m2/s | 9.15e-09 m2/s | 8.18e-09 m2/s | 7.54e-09 m2/s | 7.24e-09 m2/s | 1.2e-08 m2/s | 1.02e-08 m2/s | 9.3e-09 m2/s | 8.54e-09 m2/s | 8.07e-09 m2/s | 1.32e-08 m2/s | 1.19e-08 m2/s | 1.04e-08 m2/s | 9.49e-09 m2/s | 8.98e-09 m2/s | CCC(C)c1ccccc1 (stereo not given) [(1-methylpropyl)benzene] + O=C=O |
| 9.63e-09 m2/s | 8.71e-09 m2/s | 7.72e-09 m2/s | 7.24e-09 m2/s | 6.79e-09 m2/s | 1.11e-08 m2/s | 9.92e-09 m2/s | 8.94e-09 m2/s | 8.4e-09 m2/s | 7.57e-09 m2/s | 1.32e-08 m2/s | 1.16e-08 m2/s | 1.02e-08 m2/s | 9.21e-09 m2/s | 8.62e-09 m2/s | CC(C)CCc1ccccc1 [(3-methylbutyl)benzene] + O=C=O |
